According to patent US10364263B2, “Cyclic phosphates and cyclic phosphoramidates for the treatment of neurologic disorders” (Retrophin, Inc., priority 2015, dated 2019):

Test system: PANK2 silenced human neuroblastoma IMR32 cells (PANK2−/−)
Assay: Coenzyme A assay in PANK2 silenced cells (LC-MS quantification of free CoA)
Type: cell-based
Conditions: compound added twice (24 h + 24 h), relative to 0.1% DMSO controls
Protocol: A human neuroblastoma IMR32 cell line (ATCC) with stably PANK2 silencing was obtained by lentiviral-delivered small hairpin RNA and cultured in MEM (Invitrogen) supplemented with 10% fetal bovine serum, 2 mM glutamine, 1% penicillin-streptomycin, 1 mM sodium pyruvate, 1 mM non essential amino acids and 1.5 g/l sodium bicarbonate.
For lentiviral shRNA expression, Human Emryonic Kidney HEK-293T cells (ATCC) were transfected with the appropriate pGFP-Lenti-shRNA constructs and packaging plasmids according to manufacturer's protocol (Origene Technologies, Inc.). Four different gene-specific shRNA expression vectors designed against multiple splice variants of PANK2 (Gene ID 80025) were used for transfection. A non-silencing shRNA construct (scrambled shRNA) and an empty vector expressing GFP alone were used as negative controls. The GFP tag subcloned into the lentiviral vectors was used to monitor the transfection efficiency.
IMR32 cells were plated on 150 cm dishes 48 h before transduction with lentiviral particles.
Three days after transduction medium was removed and replaced with fresh medium containing […] puromycin. Medium was replaced every 48 h. Levels of PANK2 expression on selected clones was assessed by Western Blot analysis.
To quantify CoA, PANK2^−/− IMR32 cells were plated on 12-well culture plates (Corning) at a density of 0.2×10^6 cells per well. After 72 h, compounds were freshly dissolved in DMSO and added to the culture medium to yield a final solvent concentration of 0.1% (v/v). Controls with medium containing 0.1% DMSO without test compounds were also included in each plate. Compound treated cells were incubated for 24 h at 37° C. Treatment was repeated after 24 h with newly dissolved compound and cells were further incubated at 37° C. for additional 24 h. Before LC-MS analysis of CoA levels, cells were harvested, counted, and collected in a 15 ml falcon tube and centrifuged at 200×g for 5 min at 4° C. Supernatant was removed and cell pellet was washed in 10 ml of ice-cold PBS. To further confirm that the numbers of cells in each sample were equivalent, an equal fraction of pellet was collected from each sample and subjected to protein determination analysis. After centrifugation and supernatant removal, the cell pellet was rapidly frozen in Liquid Nitrogen and stored at −80° C. until analysis.
Intracellular CoA levels were calculated considering an intracellular volume of 1 million cells=2 μl.
The 1×10^6 cellular pellet was extracted with 120 μl of aqueous 20% TFA. This solution was stirred for 2 min, sonicated in ultrasonic bath for 2 min, then stirred again for 1 min, and centrifuged for 15 min at 14000 g and at 4° C.
100 μL samples of supernatant were dried under N2 at 20° C. in the dark.
Samples were re-dissolved in 100 μl of 10 mM NH4^+ AcO^− buffer pH 5.1+IS (Dextrorphan 50 ng/ml), stirred for 2 min, sonicated in ultrasonic bath for 1 min, then stirred again for 1 min, and injected into LC-MS.
LC-MS/MS was performed using an Agilent HPLC (1100 Series, USA). The LC system was interfaced with an API-4000 Q-Trap triple quadrupole mass spectrometer (AB Sciex, Toronto, Canada) equipped with a TurbolonSpray ionization source operating in positive ion mode. Analyst™ software version 1.6 (AB Sciex, Toronto, Canada) was used for data acquisition and processing. CoA was separated using a Luna C18 column (2.0×50 mm; 5 μm particle size), column at 25° C. and flow rate of 0.2 ml/min. Injection volume was 15 μl. The mobile phases consisted of water containing 10 mM ammonium acetate pH 7 (mobile phase A) and MeCN-2-propanol 9:1 (mobile phase B). Elution was performed using a gradient starting at 2% B, holding at 2% B until 0.1 min, increasing to 98% B at 3.2 min, holding at 98% B until 4.5 min, returning to 2% B at 4.6 min and holding at 2% B until 7.5 min. Precursor ions and MRM transitions used were: CoA m/z 768.1→261.6 and 768.1→136.1. […]

Compared with `COC(=O)CCNC(=O)[C@@H]1O[P@@](=O)(OCOC(=O)C2(C(N)=O)CC2)OCC1(C)C` [2-131, (((2S,4R)-4-((3-methoxy-3-oxopropyl)carbamoyl)-5,5-dimethy)-2-oxido-1,3,2-dioxaphosphinan-2-yl)oxy)methyl 1-carbamoylcyclopropane-1-carboxylate], `COC(=O)CCNC(=O)[C@@H]1OP(=O)(OCOC(=O)NCCOC(C)=O)OCC1(C)C` (stereo partly drawn) [2-168, methyl 3-((4R)-2-((((2-acetoxyethyl)carbamoyl)oxy)methoxy)-5,5-dimethyl-2-oxido-1,3,2-dioxaphosphinane-4-carboxamido)propanoate] is higher in “PANK2−/− CoA (Fold Increase): fold increase in Coenzyme A (CoA) levels relative to controls” value: 1.44 Fold Increase for the first, 2.69 Fold Increase for the second.

Compared with `COC(=O)CCNC(=O)[C@@H]1O[P@@](=O)(OCn2ccnc2)OCC1(C)C` [2-132, methyl 3-((2S,4R)-2-((1H-imidazol-1-yl)methoxy)-5,5-dimethyl-2-oxido-1,3,2-dioxaphosphinane-4-carboxamido)propanoate], `COC(=O)CCNC(=O)[C@@H]1OP(=O)(OCOC(=O)c2ccnn2C)OCC1(C)C` (stereo partly drawn) [2-142, (((4R)-4-((3-methoxy-3-oxopropyl)carbamoyl)-5,5-dimethyl-2-oxido-1,3,2-dioxaphosphinan-2-yl)oxy)methyl 1-methyl-1H-pyrazole-5-carboxylate] is higher in “PANK2−/− CoA (Fold Increase): fold increase in Coenzyme A (CoA) levels relative to controls” value: 0.93 Fold Increase for the first, 58.1 Fold Increase for the second.

Going from `CCN(CC)C(=O)[C@H](Cc1ccccc1)NC(=O)OCOP1(=O)OCC(C)(C)[C@H](C(=O)NCCC(=O)OC)O1` (stereo partly drawn) [2-135, methyl 3-((4R)-2-(((((S)-1-(diethylamino)-1-oxo-3-phenylpropan-2-yl)carbamoyl)oxy)methoxy)-5,5-dimethyl-2-oxido-1,3,2-dioxaphosphinane-4-carboxamido)propanoate] to `CCOC(=O)[C@H](Cc1ccccc1)NC(=O)OCOP1(=O)OCC(C)(C)[C@H](C(=O)NCCC(=O)OC)O1` (stereo partly drawn) [2-137, ethyl (((((4R)-4-((3-methoxy-3-oxopropyl)carbamoyl)-5,5-dimethyl-2-oxido-1,3,2-dioxaphosphinan-2-yl)oxy)methoxy)carbonyl)-L-phenylalaninate], the “PANK2−/− CoA (Fold Increase): fold increase in Coenzyme A (CoA) levels relative to controls” value falls from 1.7 Fold Increase to 1.1 Fold Increase.

First: COC(=O)CCNC(=O)[C@@H]1OP(=O)(OCOC(=O)NCCSC(C)=O)OCC1(C)C (stereo partly drawn) [2-136, methyl 3-((4R)-2-((((2-(acetylthio)ethyl)carbamoyl)oxy)methoxy)-5,5-dimethyl-2-oxido-1,3,2-dioxaphosphinane-4-carboxamido)propanoate]
Second: COC(=O)CCNC(=O)[C@@H]1OP(=O)(OCOC(=O)NC(C)(C)COC(C)=O)OCC1(C)C (stereo partly drawn) [2-152, methyl 3-((4R)-2-((((l-acetoxy-2-methylpropan-2-yl)carbamoyl)oxy)methoxy)-5,5-dimethyl-2-oxido-1,3,2-dioxaphosphinane-4-carboxamido)propanoate]
The “PANK2−/− CoA (Fold Increase): fold increase in Coenzyme A (CoA) levels relative to controls” value of the first is higher: 1.41 Fold Increase for the first, 1.24 Fold Increase for the second.

First: COC(=O)CCNC(=O)[C@@H]1OP(=O)(OCOC(=O)c2cc(C(C)(C)C)nn2C)OCC1(C)C (stereo partly drawn) [2-144, (((4R)-4-((3-methoxy-3-oxopropyl)carbamoyl)-5,5-dimethyl-2-oxido-1,3,2-dioxaphosphinan-2-yl)oxy)methyl 3-(tert-butyl)-1-methyl-1H-pyrazole-5-carboxylate]
Second: COC(=O)CCNC(=O)[C@@H]1OP(=O)(OCOC(=O)c2cc(C)nn2C)OCC1(C)C (stereo partly drawn) [2-145, (((4R)-4-((3-methoxy-3-oxopropyl)carbamoyl)-5,5-dimethyl-2-oxido-1,3,2-dioxaphosphinan-2-yl)oxy)methyl 1,3-dimethyl-1H-pyrazole-5-carboxylate]
The “PANK2−/− CoA (Fold Increase): fold increase in Coenzyme A (CoA) levels relative to controls” value of the first is higher: 77.8 Fold Increase for the first, 42.44 Fold Increase for the second.

Compared with `COC(=O)CCNC(=O)[C@@H]1OP(=O)(OCOC(=O)c2cc(C(C)(C)C)n[nH]2)OCC1(C)C` (stereo partly drawn) [2-146, (((4R)-4-((3-methoxy-3-oxopropyl)carbamoyl)-5,5-dimethyl-2-oxido-1,3,2-dioxaphosphinan-2-yl)oxy)methyl 3-(tert-butyl)-1H-pyrazole-5-carboxylate], `COC(=O)CCNC(=O)[C@@H]1OP(=O)(OCOC(=O)c2ocnc2C)OCC1(C)C` (stereo partly drawn) [2-147, (((4R)-4-((3-methoxy-3-oxopropyl)carbamoyl)-5,5-dimethyl-2-oxido-1,3,2-dioxaphosphinan-2-yl)oxy)methyl 4-methyloxazole-5-carboxylate] is lower in “PANK2−/− CoA (Fold Increase): fold increase in Coenzyme A (CoA) levels relative to controls” value: 84.86 Fold Increase for the first, 39.19 Fold Increase for the second.

Going from `COC(=O)CCNC(=O)[C@@H]1OP(=O)(OCOC(=O)N[C@@H](CSC(=O)C(C)(C)C)C(=O)OC)OCC1(C)C` (stereo partly drawn) [2-148, methyl N-(((((4R)-4-((3-methoxy-3-oxopropyl)carbamoyl)-5,5-dimethyl-2-oxido-1,3,2-dioxaphosphinan-2-yl)oxy)methoxy)carbonyl)-S-pivaloyl-L-cysteinate] to `COC(=O)CCNC(=O)[C@@H]1O[P@@](=O)(OCOC(=O)N[C@@H](CSC(=O)C(C)(C)C)C(=O)OCc2ccccc2)OCC1(C)C` [2-164, Benzyl N-(((((2S,4R)-4-((3-methoxy-3-oxopropyl)carbamoyl)-5,5-dimethyl-2-oxido-1,3,2-dioxaphosphinan-2-yl)oxy)methoxy)carbonyl)-S-pivaloyl-L-cysteinate], the “PANK2−/− CoA (Fold Increase): fold increase in Coenzyme A (CoA) levels relative to controls” value rises from 4.19 Fold Increase to 101.86 Fold Increase.

Going from `COC(=O)CCNC(=O)[C@@H]1O[P@@](=O)(OCOC(=O)NC(C)(C)COC(=O)[C@@H](N)C(C)C)OCC1(C)C` [2-158, 2-((((((2S,4R)-4-((3-methoxy-3-oxopropyl)carbamoyl)-5,5-dimethyl-2-oxido-1,3,2-dioxaphosphinan-2-yl)oxy)methoxy)carbonyl)amino)-2-methylpropyl L-valinate] to `COC(=O)CCNC(=O)[C@@H]1OP(=O)(OCOC(=O)NC(C)(C)COC(=O)C(C)(C)C)OCC1(C)C` (stereo partly drawn) [2-167, 2-((((((4R)-4-((3-methoxy-3-oxopropyl)carbamoyl)-5,5-dimethyl-2-oxido-1,3,2-dioxaphosphinan-2-yl)oxy)methoxy)carbonyl)amino)-2-methylpropyl pivalate], the “PANK2−/− CoA (Fold Increase): fold increase in Coenzyme A (CoA) levels relative to controls” value rises from 2.72 Fold Increase to 3.26 Fold Increase.

First: COC(=O)CCNC(=O)[C@@H]1O[P@](=O)(Oc2ccc(C[C@H](N)C(=O)OC)cc2)OCC1(C)C [2-163, Methyl (S)-2-amino-3-(4-(((2R,4R)-4-((3-methoxy-3-oxopropyl)carbamoyl)-5,5-dimethyl-2-oxido-1,3,2-dioxaphosphinan-2-yl)oxy)phenyl)propanoate]
Second: COC(=O)CCNC(=O)[C@@H]1O[P@](=O)(Oc2ccc(C#N)cc2)OCC1(C)C [2-165, methyl 3-((2R,4R)-2-(4-cyanophenoxy)-5,5-dimethyl-2-oxido-1,3,2-dioxaphosphinane-4-carboxamido)propanoate]
The “PANK2−/− CoA (Fold Increase): fold increase in Coenzyme A (CoA) levels relative to controls” value of the first is higher: 81.21 Fold Increase for the first, 6.87 Fold Increase for the second.

In the case of `COC(=O)CCNC(=O)[C@@H]1O[P@](=O)(Oc2ccccc2C(=O)OC)OCC1(C)C` [2-166], the “PANK2−/− CoA (Fold Increase): fold increase in Coenzyme A (CoA) levels relative to controls” value was 3.61 Fold Increase.
